Measured values as given in patent US20140141503A1, “CELL CULTURE SUBSTRATE HAVING UNIFORM SURFACE COATING” (Corning Incorporated, priority 2012, published 2014).

Test: Compound extraction (loss) from PBS buffer by PDMS coating, UV-VIS at 260 nm
Assay type: physicochemical
Conditions: 200 μL of 200 μM Nefazodone-PBS, 24 hours, less than 0.8 mg of PDMS in 200 μL PBS (volume ratio PDMS to buffer less than 1/250)
Procedure: Nefazodone is a small hydrophobic compound that can be readily extracted from aqueous buffer by PDMS following a partition function rule, which means the loss of Nefazodone […] with the amount of PDMS present in a given volume of buffer. In order to determine the safe quantity of PDMS for use with 200 μL of PBS buffer, 200 μL of a 200 μM Nefazodone-PBS solution was incubated in wells (formed generally as described above in EXAMPLE 4) containing varying PDMS coating amounts from 0.005 mg to 4 mg per well for 24 hours. After 24 hours the Nefazodone that remained in the PBS buffer was measured by UV-VIS adsorption at 260 nm. The results shown in FIG. 11 indicate that the loss of Nefazodone is negligible in the presence of less than 0.8 mg of PDMS in 200 μL of PBS buffer (meaning volume ratio of PDMS to buffer is less than 1/250).

CCc1nn(CCCN2CCN(c3cccc(Cl)c3)CC2)c(=O)n1CCOc1ccccc1 [Nefazodone]
loss of Nefazodone from PBS buffer: negligible
